We go through five compounds from US20120316106A1, “SYNERGISTIC ANTIBIOTIC COMBINATIONS AND DERIVATIVES” (YEDA RESEARCH AND DEVELOPMENT CO. LTD., priority 2009, published 2012).

“Also recorded” adds a separate entry of the source. Where two headings read alike, the source gives them in different places.

In data set [1] the target is D. radiodurans 50S subunits. In words: Competition with 14C-ERY for binding to 50S subunits. As to conditions: 0.1 μM 50S, 0.1 μM 14C-erythromycin, FIG. 5C; read-out: IC50, displacement of 14C-ERY from D50S. The source says:
S. rochei secretes two antibiotics, a 17-member ring macrocyclic LC and a 14-member ring macrolide, lankamycin (LM). LM is structurally similar to ERY (FIG. 1) and thus it was assumed that it is likely to bind to the ribosome at the site and orientation similar to ERY, namely at the NPET in immediate proximity to the PTC, the LC binding site. […] These observations raised the question whether, similarly to ERY, LM would also compete with LC for ribosome binding.
(§1) Antibiotic binding and inhibition of cell-free translation were determined as described in (Xiong, L. et al., 2005, Antimicrob Agents Chemother 49, 281-288). Inhibition of the peptidyl transferase reaction by LC was performed and analyzed as described in. The data were analyzed using Prism 4 (GraphPad Software). RNA probing was carried out as described in (Moazed, D. and Noller, H. F., 1987, Biochemie 69, 879-884) using D50S.
D. radiodurans 50S subunits (0.1 μM) were preincubated 15 min at 37° C. with 0.1 μM of ^14C-erthromycin (48.8 mCi/mmol, Perkin Elmer) in 100 μl binding buffer (20 mM Tris-HCl, pH 7.5, 10 mM MgCl2, 250 mM NH4Cl, 6 mM β-mercaptoethanol). […] The ribosome-antibiotic complexes were purified by gel filtration in BioGel P30 spin columns as described (Xiong, L. et al. ibid) and the amount of ribosome-bound radioactivity was measured by scintillation counting.
A general note: Displacement assays read how much labelled ligand stays bound in the presence of the test substance.

The target of data set [2] is large ribosomal subunits of D. radiodurans. In words: Inhibition of peptidyl transferase (puromycin) reaction, isolated large subunits. As to conditions: FIG. 5B, read-out: IC50, inhibition of puromycin reaction (peptide bond formation). Format: biochemical. The protocol:
as §1
(§2) In the reaction catalyzed by large ribosomal subunits, D. radiodurans 50S subunits (200 nM final concentration) were combined in 50 μl of the reaction buffer (20 mM Tris-HCl, pH 8.0, 20 mM MgCl2, 400 mM KCl) with 28 nM [^3H]-fMet-tRNA, 1 mM puromycism at varying concentrations of LC. Reactions were initiated by addition of 25 μl methanol and incubated on ice for 30 min. Reactions were stopped and analyzed as described (Maguire et al., 2005, Mol Cell 20, 427-435). In the ribosome-based puromycin assay, 70S ribosomes of S. aureus (at a final concentration of 200 nM) were preincubated for 15 min at 37° C. in 50 μl of polyamine buffer (20 mM HEPES-KOH, pH 7.6, 6 mM Mg-acetate, 150 mM NH4Cl, 4 mM β-mercaptoethanol, 2 mM spermidine, 0.05 mM spermine) with 600 nM mRNA AAGGAGAUAAACAAUGGGU and 28 nM [^3H]-fMet-tRNA. After addition of varying concentrations of LC, puromycin was added to the final concentration of 0.5 mM and reactions were incubated for 15 m in at 37° C. […]

The subject of data set [3] is Staphylococcus aureus 70S ribosomes. The experiment in a line: Inhibition of peptidyl transferase (puromycin) reaction, 70S ribosomes. Format: biochemical. Particulars: S. aureus 70S ribosomes, FIG. 5B; read-out: IC50, inhibition of puromycin reaction (peptide bond formation). The protocol:
as §1, §2

Data set [4] concerns eukaryotic cell-free translation. As to conditions: background statement; cited from earlier work.
The test system of data set [5] is D. radiodurans 50S ribosomal subunits (23S rRNA). In words: RNA probing (chemical footprinting) of 23S rRNA with CMCT and DMS. The class given is binding. Particulars: LC 50 μM, LM 500 μM, D50S 200 nM; for Protection of 23S rRNA residues from CMCT modification: ERY 50 μM. As to the method: (§3) To address this question, it was first verified that LM binds to the ribosome and inhibits protein synthesis. […] RNA probing was then utilized to follow the binding of LC and LM to the ribosome. For the consistency of structural data, RNA probing experiments were carried out using D. radiodurans large ribosomal subunits. Binding of LC and LM was analyzed using chemical modifying reagents 1-cyclohexyl-3-(2-morpholinoethyl) carbodiimide metho-p-toluene sulfonate (CMCT) and dimethyl sulfate (DMS).
Similar to ERY and other 14 member-ring macrolides, binding of LM results in protection of U2609 from CMCT modification and of A2058 and A2059 from DMS chemical modification performed on the 23S rRNA of D. Radiodurans in complex with the combinations of the antibiotics (FIGS. 6C,D). The idiosyncratic protections of 23S rRNA residues were exploited against CMCT modification, afforded by LC and LM, to interrogate their simultaneous interaction with the ribosome. […] However, the accessibility of these residues to CMCT is not affected by LM or ERY (FIG. 6). […] In contrast, and in agreement with the binding experiments, the LC-mediated protection of U2506 and U2585 is partially relieved upon addition of ERY (FIG. 6D) and ERY-dependent protection of U2609 is partly reversed when LC is present. Thus, while LC and ERY compete for the binding to the ribosome, LC and LM can bind simultaneously to their respective targets in the PTC and NPET.
as §1
RNA probing was carried out essentially as described (16, 46) using D. radiodurans 50S ribosomal subunits at 200 nM concentration and antibiotics at the following concentrations: LC—50 μM, LM—500 μM, ERY—50 μM. Prior to addition of the modifying reagents, ribosomal subunits were pre-incubated with the drug 10 min at 37° C. and then 10 min at 20° C.

Data set [6] relates to E. coli cell-free transcription-translation system. In words: Inhibition of E. coli cell-free transcription-translation (firefly luciferase readout). Format: biochemical. The protocol:
as §3, §1
The E. coli cell-free transcription-translation system for circular DNA (Promega) was pre-incubated with varying concentrations of antibiotics for 5 min at 20° C. The reactions (10 μl final volume) were initiated by adding 0.64 μg of pBestLuc plasmid DNA (Promega). Reactions were incubated for 40 min at 20° C. and stopped by chilling on ice. The activity of firefly luciferase synthesized in the reaction was determined in 96-well plates using Bright-Glo Luciferase Assay System (Promega) as recommended by the manufacturer.

In data set [7] the test system is Gram-positive bacteria. As to conditions: background statement; cited from earlier work.
The conditions of data set [8]: background statement; cited from earlier work.
The mark [9] stands for this setting: FIG. 5A / 5D, read-out: IC50, inhibition of bacterial (E. coli) cell-free transcription-translation.
Where [10] appears, read: Table 2, read-out: [IC50] for antibiotic inhibition of cell free translation.

Turning to `CC(=O)C(=O)N[C@@H]1/C=C(C)/C=C/[C@@H](O)C/C=C(C)/C=C/[C@@H](O)C[C@H]2OC(=O)[C@]1(C)C(=O)[C@@H]2C` [LC, Lankacidin C], the concentration for half-maximal inhibition (IC50) in data set [1] came to 355 ± 26 nM; in data set [2] it was 10 ± 6 µM; in data set [3] it was 320 ± 20 nM; in data set [6] (setting [9]) it was 1500 ± 100 nM. The “Effect on eukaryotic cell-free translation” value in data set [4] is given as “little effect”. For the same compound, the “Protection of 23S rRNA residues from CMCT modification” value (from here on “Protection … from CMCT modification”) in data set [5] was “shields U2506 and U2585 from alterations; also recorded: no effect on this nucleotide”. In data set [5], the “Protection of 23S rRNA residues from DMS modification” value is recorded as “A2059 became partially protected from DMS whereas modification of A2058 was increased”. In addition, the “Antibiotic activity against Gram-positive bacteria” value in data set [7] is reported as “inhibits growth of Gram-positive bacteria”.

`CC[C@H]1NC(=O)[C@@H](NC(=O)c2ncccc2O)[C@@H](C)OC(=O)[C@H](c2ccccc2)NC(=O)[C@@H]2CC(=O)CCN2C(=O)[C@H](Cc2ccccc2)N(C)C(=O)[C@@H]2CCCN2C1=O` [Virginiamycin S]: the IC50 in data set [6] (setting [10]) turned out to be 2500 nM.

Turning to `CC1=C\[C@@H](O)CC(=O)Cc2nc(co2)C(=O)N2CCC=C2C(=O)O[C@H](C(C)C)[C@H](C)/C=C/C(=O)NC\C=C\1` [Virginiamycin M], in data set [6] (setting [10]), the IC50 was 800 nM.

Turning to `CO[C@H]1C[C@@H](C)O[C@@H](O[C@@H]2[C@@H](C)[C@H](O[C@H]3C[C@@](C)(OC)[C@H](OC(C)=O)[C@H](C)O3)[C@@H](C)C(=O)O[C@H]([C@@H](C)[C@H](C)O)[C@H](C)[C@H](OC(C)=O)[C@@H](C)C(=O)[C@@](C)(O)C[C@@H]2C)[C@@H]1O` [LM, lankamycin], in data set [5], the “Protection … from CMCT modification” value was “strongly protect U2609”; the “Protection of 23S rRNA residues from DMS modification” value is “protects A2059 and A2058 from DMS modification”. Besides, the half-maximal inhibitory concentration (IC50) in data set [6] (setting [9]) was 275000 ± 36000 nM. In addition, in data set [8], the “Toxicity in animal models” value is recorded as “low toxicity”. For the same compound, in data set [7], the “Antibiotic activity against Gram-positive bacteria” value is “weak antibiotic activity”.

In the case of `CC[C@H]1OC(=O)[C@H](C)[C@@H](O[C@H]2C[C@@](C)(OC)[C@@H](O)[C@H](C)O2)[C@H](C)[C@@H](O[C@@H]2O[C@H](C)C[C@H](N(C)C)[C@H]2O)[C@](C)(O)C[C@@H](C)C(=O)[C@H](C)[C@@H](O)[C@]1(C)O` [ERY, erythromycin, reference compound], the “Protection … from CMCT modification” value in data set [5] was “strongly protect U2609”. For the same compound, the half-maximal inhibitory concentration (IC50) in data set [6] (setting [10]) worked out at 200 nM.

One may read the IC50 as the concentration that inhibits the measured activity by half.
